Measurements from patent US9663789B2, “PME-1 as a biomarker to predict and diagnose endometrial and breast cancer and gene silencing of PME-1 to inhibit epithelial to mesenchymal transition” (MEDICAL DIAGNOSTIC LABORATORIES, LLC, priority 2013, dated 2017).

Legend:
Format in all cases: cell-based, human
[1] = tested on: β-catenin; assay: Western analysis of β-catenin in RL95-2 cells
Text: We performed Western blot analysis in RL95-2 cells that were expressing empty vector (Control), over-expressing PME-1 (+PME-1) or expressing shRNA against PME-1 (−PME-1) (SEQ ID NO: 2) to examine the protein stability of β-catenin (FIG. 19A). We observed a decrease in total β-catenin protein in cells that were over-expressing PME-1. This observation is correlated with the predicted ubiquitylation of β-catenin and its degradation.
In another series of study, we performed a similar assay in which cells were treated with 10 μM MG-132 prior to protein extraction. MG-132 is a proteasome inhibitor and therefore allows for the accumulation of phosphorylated β-catenin, which is normally quickly degraded, to be detected by western analysis.
15 μg of protein was used for western analysis. PME-1 antibody (Santa Cruz) and COXIV (Cell Signaling Technologies) were used for detection of proteins and the blots were developed using chemiluminescence (Pierce ECL Western Blotting Substrate—Thermo Scientific) on the GE ImageQuant LAS 4000. For analysis of Akt, ERK, and β-catenin signaling in tissue culture, western analyses were completed as follows. RL95-2 cells stably infected with lentivirus expressing constructs were selected with puromycin (Invivogen). […]

[2] = tested on: ERK; assay: Western analysis of phospho-ERK in RL95-2 cells; settings: RL95-2, compared to control cells
Procedure: 15 μg of protein was used for western analysis. PME-1 antibody (Santa Cruz) and COXIV (Cell Signaling Technologies) were used for detection of proteins and the blots were developed using chemiluminescence (Pierce ECL Western Blotting Substrate—Thermo Scientific) on the GE ImageQuant LAS 4000. For analysis of Akt, ERK, and β-catenin signaling in tissue culture, western analyses were completed as follows. RL95-2 cells stably infected with lentivirus expressing constructs were selected with puromycin (Invivogen). The cells were incubated with either 50 μM Akt inhibitor (LY 294002, Cell Signaling Technologies) or 40 μM ERK inhibitor (V0126, Cell Signaling Technologies) for 1-2 hours at 37° C. 1.5× Laemelli buffer (0.5 M Tris pH6.8, […], 10% sodium dodecyl sulfate, 100 mM EDTA) was used to prepare cell lysates. 20 μg of protein was used for western analysis. Primary antibodies used were: P-Akt (Ser473), P-Akt (Thr308), pan-Akt, P-ERK (Thr202/204), total ERK (Cell Signaling Technologies), PME-1 (Santa Cruz), phospho-β-catenin (Ser45, Cell Signaling Technologies), phospho-β-catenin (Ser33/37/Thr41, Cell Signaling Technologies), β-catenin (Abcam), DcR2 (Abcam), and GAPDH (Abcam). All experiments were repeated several times with similar results.

[3] = tested on: RL95-2 cells; assay: Immunofluorescence of mitotic cells (phosphorylated histone H3 Ser10); settings: RL95-2, compared to control cells
Procedure: Endometrial cancer cells were stained for phosphorylated histone H3 on serine 10, a marker of mitotic cells, followed by counterstaining with DAPI (FIG. 12) to identify all cells.
For analysis of patient samples, tissues were blocked for 2 hours with 10% FBS in TBST for at RT, incubated with each primary antibody (together) overnight at 4° C., washed three times for 15 min in TBST, incubated with each secondary fluorescent antibody (together) for 1 hr at RT, washed again as above, stained with DAPI and mounted with cover-slips using vectashield mounting media (Vector Labs). Primary antibodies used were for PME-1 (Santa Cruz), E-cadherin (Millipore), and vimentin (Genscript). 1×10^3RL95-2 cells were plated on a chamber slide and were incubated overnight at 37° C. Slides were fixed with 4% paraformaldehyde (PFA) on ice for two hours. The cells were incubated with the primary antibody to Histone 3 (pH3) phosphorylated at Ser10 (1:200, Cell Signaling Technologies) overnight and developed with the secondary anti-rabbit Alexa-Fluor 555 antibody (Cell Signaling Technologies). DAPI was used as a nuclear counter-stain (Sigma Aldrich). Images were taken with the Nikon Eclipse TE2000 at 20×.

[4] = tested on: ECC-1 cells; assay: Foci formation assay, ECC-1 cells; settings: ECC-1 stable clones, with empty FLAG, PP2A, PP4 or PP6 over-expression, 10 days, vs shSCR
Procedure: FIG. 24 depicts results from a study in which stable clones of ECC-1 cells expressing non-targeting scrambled shRNA (shSCR, black bars) or shPPME-1 (white bars) (SEQ ID NO: 2) and were then transfected with FLAG empty vector, FLAG-PPP2CA, FLAG-PPP4C, or FLAG-PPP6C. Cells (3,000) were plated and were allowed to grow for 10 days. Colonies were then stained with crystal violet and counted. The control cells expressing shSCR and transfected with empty FLAG vector were normalized to 100% foci formation. […] Averages of 6 experiments are plotted and statistical significance was calculated with the Student's T test, where *p<0.05, **p<0.01, ***p<0.001.
We performed a foci formation analysis by transfecting: (i) empty FLAG vector, (ii) FLAG-PPP2CA, (iii) FLAG-PPP4C, or (iv) FLAG-PPP6C into ECC-1 cells that stably expressed either (i) shSCR (non-targeting shRNA, black bars) or (ii) shPPME1 (depletes PME-1 levels, white bars) (FIG. 24).
1,000 cells were plated in a six well tissue culture dish in selection media (to include 5 μg/ml puromycin) (InvivoGen). Cells were allowed to adhere and grow in a 5% CO2, 37° C. incubator for 10 to 14 days. Media was replaced every fourth day. Cells were stained with 1% crystal violet (Sigma Aldrich) for five minutes and rinsed with PBS. Colonies were counted and data is presented as the percentage of change compared to the control. […]

[5] = tested on: RL95-2 cells; assay: BrDU incorporation assay, RL95-2 cells; settings: RL95-2, compared to scrambled shRNA control set to 100%
Procedure: To confirm our foci formation data that altering PME-1 levels in endometrial cancer cells affect their rate of cell proliferation, we conducted a BrDU incorporation assay. BrDU is incorporated into newly synthesized DNA and can be detected with antibodies; thus, increased BrDU incorporation correlates with an increased level of proliferation.
The BrDU Incorporation assay was completed with RL95-2 cell lines in media supplemented with 2.5 μg/ml puromycin. Cells were plated at 0.5×10^4 cells per well into a 96 well dish with 0% FBS and allowed to settle for 24 hours. The assay was completed as per kit instructions (Roche, Cell Proliferation ELISA, BrdU colorimetric cat. #11647229001). Briefly, 10 uM BrdU was added to the cells, 24 hours later cells were fixed and denatured with FixDenat from the kit and allowed to incubate with anti-BrdU antibody for up to two hours. Following the incubation and addition of the kit substrate, absorbances were read using FluoStar Galaxy.

## shRNA (SEQ ID NO: 2): lentiviral shRNA against PPME1, target sequence SEQ ID NO: 2 GCAGCGATTATTAGTAGAGTT, bp 289-309; hairpin SEQ ID NO: 8 (CCGGGCAGCGATTATTAGTAGAGTTCTCGAGAACTCTACTAATAATCGCTGCTTTTT; listed as Homo sapiens)
[1]; RL95-2, absence of MG-132
  total β-catenin protein (Western): stabilization of total β-catenin
[1]; RL95-2, treated with 10 μM MG-132, compared to control cells
  phosphorylated β-catenin (Western): did not lead to an increase in phosphorylated β-catenin
[2]
  phospho-ERK (Western): decrease in phospho-ERK
[3]
  decreased proliferation (phospho-histone H3 positive cells): ~30%
[4]; listed as shPPME1 (SEQ ID NO: 2)
  foci formation: significant decrease in foci formation
[4]; listed as shPPME-1 (SEQ ID NO: 2)
  foci formation: significant decrease in foci formed
[5]
  decrease in BrDU incorporation: 40%
